Reference: patent US12653191B2, “Active compound combinations” (Bayer Aktiengesellschaft, priority 2020, dated 2026)
Like-named read-outs stand apart in the source and are kept apart here.

Columns and labels:
[1] = test system: Ustilago segetum var. avenae; assay: in vitro-Test with fungal microorganisms, Method B (tables I6-I11); format: cell-based; details: read-out: Efficacy %
Method in brief: (§1)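 Cpd in MeOH + alkylaryl-polyglycol-ether, solvent evaporated; liquid medium + fungal spores/mycelium added; OD600 read; 3–7 d, 20° C., 85% RH; growth inhibition by photometry, % efficacy vs untreated ctrl.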

Diaporthe citri [2] = assay: in vitro-Test with fungal microorganisms, Method B (tables F12-F15); format: cell-based
Method in brief: as §1

Cordana musae [3] = assay: in vitro-Test with fungal microorganisms, Method A (tables E1-E8); format: cell-based; details: Neocordana musae, read-out: Efficacy %
Method in brief: (§2)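 Growth inhibition was measured photometrically at 620 nm 3–5 days after application, with 100% efficacy meaning no growth and 0% meaning growth equal to the untreated control. Fungal spore or mycelium suspension in potato dextrose broth was added onto solvent-evaporated compound and incubated at 20° C and 85% relative humidity.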

Parastagonospora nodorum = assay: in vitro-Test with fungal microorganisms, Method B (tables H5-H8); format: cell-based; details: Parastagonospora nodorum, read-out: Efficacy
Method in brief: as §1

Alternaria alternata = assay: in vitro-Test with fungal microorganisms, Method B (tables A13-A22); format: cell-based; details: Alternaria alternata, read-out: Efficacy
Method in brief: as §1

Botrytis cinerea = assay: in vitro-Test with fungal microorganisms, Method A (tables B1-B14); format: cell-based; details: Botrytis cinerea
Method in brief: as §2

[4] = test system: Ustilago segetum var. avenae; assay: in vitro-Test with fungal microorganisms, Method A (tables I1-I5); format: cell-based; details: alone, read-out: Efficacy %
Method in brief: as §2

Alternaria alternate = assay: in vitro-Test with fungal microorganisms, Method A (tables A1-A12); format: cell-based, Alternaria alternata; details: Alternaria, applied alone, read-out: Efficacy %
Method in brief: as §2

Colletotrichum coccodes = assay: in vitro-Test with fungal microorganisms, Method B (tables J1-J11); format: cell-based; details: Colletotrichum coccodes, read-out: Efficacy %
Method in brief: as §1

[5] = test system: Colletotrichum lindemuthianum; assay: in vitro-Test with fungal microorganisms, Method A (tables D1-D8); format: cell-based
Method in brief: as §2

Cercospora beticola [6] = assay: in vitro-Test with fungal microorganisms, Method A (tables C1-C10); format: cell-based; details: Cercospora beticola, read-out: Efficacy %
Method in brief: as §2

Cercospora beticola [7] = assay: in vitro-Test with fungal microorganisms, Method B (tables C11-C20); format: cell-based; details: Cercospora beticola, read-out: Efficacy %
Method in brief: as §1

Diaporthe citri [8] = assay: in vitro-Test with fungal microorganisms, Method A (tables F1-F11); format: cell-based; details: Diaporthe citri, read-out: Efficacy
Method in brief: as §2

Fusarium culmorum [9] = assay: in vitro-Test with fungal microorganisms, Method A (tables G1-G4); format: cell-based
Method in brief: as §2

Fusarium culmorum [10] = assay: in vitro-Test with fungal microorganisms, Method B (tables G5-G15); format: cell-based; details: Fusarium culmorum, single active compound, 0.08 ppm; read-out: Efficacy
Method in brief: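 Read photometrically at 600 nm after 3-7 days at 20° C and 85% relative humidity, Fusarium culmorum growth inhibition is expressed against untreated control. Wells hold solvent-evaporated compound (from methanol/emulsifier) overlaid with spore- or mycelium-amended growth medium.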

Cordana musae [11] = assay: in vitro-Test with fungal microorganisms, Method B (tables E9-E16); format: cell-based; details: for Efficacy %: single substance
Method in brief: as §1

Question: With `CON=C(C(=O)OC)c1ccccc1CON=C(C)c1cccc(C(F)(F)F)c1` [(3.020) trifloxystrobin, trifloxystrobin] as the compound, how does the inhibition of growth at 0.04 ppm ([1]; 0.04 ppm) read?
Answer: 38%

Question: What about the inhibition of growth at 0.2 ppm ([1]; 0.2 ppm) of the same compound?
Answer: 54%

Question: What about the inhibition of growth at 1 ppm ([1]; 1 ppm) of the same compound?
Answer: 60%

Question: And the Efficacy (Diaporthe citri [2]; Table F15, 0.008 ppm alone)?
Answer: 68%

Question: What about the inhibition of growth at 0.008 ppm (Cordana musae [3]; mixing partner alone) of the same compound?
Answer: 3%

Question: What about the inhibition of growth at 1 ppm (Cordana musae [3]; mixing partner alone) of the same compound?
Answer: 66%

Question: What about the inhibition of growth at 0.008 ppm (Cordana musae [3]; single substance) of the same compound?
Answer: 13%

Question: And the inhibition of growth at 0.04 ppm (Cordana musae [3]; single substance, 0.04 ppm)?
Answer: 67%

Question: And the inhibition of growth at 0.2 ppm (Cordana musae [3]; single substance, 0.2 ppm)?
Answer: 48%

Question: What about the inhibition of growth at 1 ppm (Cordana musae [3]; single substance) of the same compound?
Answer: 77%

Question: And the inhibition of growth at 0.008 ppm (Parastagonospora nodorum; 0.008 ppm)?
Answer: 17%

Question: And the inhibition of growth at 0.04 ppm (Parastagonospora nodorum; 0.04 ppm)?
Answer: 54%

Question: What about the inhibition of growth at 0.2 ppm (Parastagonospora nodorum; 0.2 ppm) of the same compound?
Answer: 83%

Question: And the inhibition of growth at 1 ppm (Parastagonospora nodorum; 1 ppm)?
Answer: 87%

Question: And the inhibition of growth at 0.04 ppm (Alternaria alternata; 0.04 ppm)?
Answer: 49%

Question: What about the inhibition of growth at 0.2 ppm (Alternaria alternata; 0.2 ppm) of the same compound?
Answer: 85%

Question: What about the inhibition of growth at 0.008 ppm (Botrytis cinerea; alone, 0.008 ppm, read-out: Efficacy %) of the same compound?
Answer: 19%

Question: What about the inhibition of growth at 0.04 ppm (Botrytis cinerea; alone, 0.04 ppm, read-out: Efficacy %) of the same compound?
Answer: 0%

Question: And the inhibition of growth at 0.2 ppm (Botrytis cinerea; alone, 0.2 ppm, read-out: Efficacy %)?
Answer: 0%

Question: And the inhibition of growth at 1 ppm (Botrytis cinerea; alone, 1.0 ppm, read-out: Efficacy %)?
Answer: 37%

Question: And the inhibition of growth at 0.008 ppm ([4]; 0.008 ppm)?
Answer: 19%

Question: What about the inhibition of growth at 0.04 ppm ([4]; 0.04 ppm) of the same compound?
Answer: 0%

Question: What about the inhibition of growth at 1 ppm ([4]; 1.0 ppm) of the same compound?
Answer: 64%

Question: What about the inhibition of growth at 5 ppm ([4]; 5.0 ppm) of the same compound?
Answer: 100%

Question: What about the inhibition of growth at 0.008 ppm (Alternaria alternate; 0.008 ppm) of the same compound?
Answer: 44%

Question: What about the inhibition of growth at 0.04 ppm (Alternaria alternate; 0.04 ppm) of the same compound?
Answer: 87%

Question: What about the inhibition of growth at 0.2 ppm (Alternaria alternate; 0.2 ppm) of the same compound?
Answer: 95%

Question: What about the inhibition of growth at 1 ppm (Alternaria alternate; 1.0 ppm) of the same compound?
Answer: 96%

Question: And the inhibition of growth at 0.04 ppm (Colletotrichum coccodes; 0.04 ppm)?
Answer: 35%

Question: What about the inhibition of growth at 0.008 ppm (Colletotrichum coccodes; single active compound at 0.008 ppm) of the same compound?
Answer: 0%

Question: What about the inhibition of growth at 1 ppm (Colletotrichum coccodes; single active compound at 1 ppm) of the same compound?
Answer: 50%

Question: And the inhibition of growth at 0.008 ppm ([5]; Colletotrichum lindemuthianum, mixing partner alone, 0.008 ppm, read-out: Efficacy %)?
Answer: 30%

Question: And the inhibition of growth at 0.04 ppm ([5]; Colletotrichum lindemuthianum, mixing partner alone, 0.04 ppm, read-out: Efficacy %)?
Answer: 80%

Question: And the inhibition of growth at 0.2 ppm ([5]; Colletotrichum lindemuthianum, mixing partner alone, 0.2 ppm, read-out: Efficacy %)?
Answer: 92%

Question: What about the inhibition of growth at 1 ppm ([5]; Colletotrichum lindemuthianum, mixing partner alone, 1.0 ppm, read-out: Efficacy %) of the same compound?
Answer: 88%

Question: What about the inhibition of growth at 0.008 ppm ([5]; Colletotrichum lindemuthianum, single active at 0.008 ppm, read-out: Efficacy %) of the same compound?
Answer: 25%

Question: What about the inhibition of growth at 0.04 ppm ([5]; Colletotrichum lindemuthianum, single active at 0.04 ppm, read-out: Efficacy %) of the same compound?
Answer: 66%

Question: What about the inhibition of growth at 0.2 ppm ([5]; Colletotrichum lindemuthianum, single active at 0.2 ppm, read-out: Efficacy %) of the same compound?
Answer: 85%

Question: And the inhibition of growth at 1 ppm ([5]; Colletotrichum lindemuthianum, single active at 1.0 ppm, read-out: Efficacy %)?
Answer: 84%

Question: And the inhibition of growth at 0.008 ppm (Cercospora beticola [6]; 0.008 ppm alone)?
Answer: 95%

Question: And the inhibition of growth at 0.04 ppm (Cercospora beticola [6]; 0.04 ppm alone)?
Answer: 100%

Question: What about the inhibition of growth at 0.2 ppm (Cercospora beticola [6]; 0.2 ppm alone) of the same compound?
Answer: 100%

Question: What about the inhibition of growth at 1 ppm (Cercospora beticola [6]; 1.0 ppm alone) of the same compound?
Answer: 100%

Question: And the inhibition of growth at 0.008 ppm (Cercospora beticola [7]; single compound, 0.008 ppm)?
Answer: 96%

Question: What about the inhibition of growth at 0.008 ppm (Diaporthe citri [8]; applied alone) of the same compound?
Answer: 65%

Question: What about the inhibition of growth at 0.04 ppm (Diaporthe citri [8]; applied alone) of the same compound?
Answer: 95%

Question: What about the inhibition of growth at 0.008 ppm (Diaporthe citri [8]; single active) of the same compound?
Answer: 63%

Question: What about the inhibition of growth at 0.04 ppm (Diaporthe citri [8]; single active) of the same compound?
Answer: 95%

Question: And the inhibition of growth at 0.2 ppm (Diaporthe citri [8]; single active, 0.2 ppm)?
Answer: 95%

Question: What about the inhibition of growth at 1 ppm (Diaporthe citri [8]; single active, 1.0 ppm) of the same compound?
Answer: 96%

Question: What about the inhibition of growth at 0.2 ppm (Fusarium culmorum [9]; Fusarium culmorum, 0.2 ppm, alone, read-out: Efficacy) of the same compound?
Answer: 22%

Question: What about the inhibition of growth at 1 ppm (Fusarium culmorum [9]; Fusarium culmorum, 1.0 ppm, alone, read-out: Efficacy) of the same compound?
Answer: 5%

Question: And the inhibition of growth at 0.04 ppm (Fusarium culmorum [9]; Fusarium culmorum, Table G1, 0.04 ppm alone, read-out: Efficacy)?
Answer: 0%

Question: And the inhibition of growth at 0.2 ppm (Fusarium culmorum [9]; Fusarium culmorum, Table G1, 0.2 ppm alone, read-out: Efficacy)?
Answer: 15%

Question: What about the inhibition of growth at 1 ppm (Fusarium culmorum [9]; Fusarium culmorum, Table G1, 1.0 ppm alone, read-out: Efficacy) of the same compound?
Answer: 15%

Question: What does the source list for `N#Cc1sc2c(=O)c3ccccc3c(=O)c=2sc1C#N` [(5.010) dithianon, dithianon]?
Answer: inhibition of growth at 0.08 ppm ([1]; 0.08 ppm): 2%; inhibition of growth at 0.4 ppm ([1]; 0.4 ppm): 0%; inhibition of growth at 2 ppm ([1]; 2 ppm): 29%; Efficacy (Diaporthe citri [2]; Table F13, 0.4 ppm alone): 13%; inhibition of growth at 0.8 ppm (Cordana musae [3]; single substance, 0.8 ppm): 0%; inhibition of growth at 4 ppm (Cordana musae [3]; single substance, 4.0 ppm): 100%; inhibition of growth at 0.08 ppm (Parastagonospora nodorum; 0.08 ppm): 12%; inhibition of growth at 0.4 ppm (Parastagonospora nodorum; 0.4 ppm): 5%; inhibition of growth at 2 ppm (Parastagonospora nodorum; 2 ppm): 96%; inhibition of growth at 0.4 ppm (Alternaria alternata; single compound, 0.4 ppm): 0%; inhibition of growth at 2 ppm (Alternaria alternata; single compound, 2 ppm): 32%; inhibition of growth at 0.08 ppm (Fusarium culmorum [10]): 4%; inhibition of growth at 2 ppm (Cordana musae [11]; Neocordana musae, single active, 2 ppm, read-out: Efficacy): 95%; Efficacy % (Cordana musae [11]; 0.08 ppm): 0%; Efficacy % (Cordana musae [11]; 10 ppm): 100%; inhibition of growth at 0.8 ppm (Botrytis cinerea; read-out: Efficacy): 0%; inhibition of growth at 4 ppm (Botrytis cinerea; 4.0 ppm, read-out: Efficacy): 23%; inhibition of growth at 20 ppm (Botrytis cinerea; read-out: Efficacy): 100%; inhibition of growth at 0.8 ppm (Botrytis cinerea; alone, read-out: Efficacy %): 0%; inhibition of growth at 20 ppm (Botrytis cinerea; alone, read-out: Efficacy %): 99%; inhibition of growth at 0.8 ppm ([4]; 0.8 ppm): 12%; inhibition of growth at 4 ppm ([4]; 4.0 ppm): 100%; inhibition of growth at 20 ppm ([4]; 20.0 ppm): 99%; inhibition of growth at 0.08 ppm (Colletotrichum coccodes; single active compound at 0.08 ppm): 0%; inhibition of growth at 0.4 ppm (Colletotrichum coccodes; single active compound at 0.4 ppm): 11%; inhibition of growth at 10 ppm (Colletotrichum coccodes; single active compound at 10 ppm): 100%; inhibition of growth at 0.8 ppm ([5]; Colletotrichum lindemuthianum, single active at 0.8 ppm, read-out: Efficacy %): 0%; inhibition of growth at 4 ppm ([5]; Colletotrichum lindemuthianum, single active at 4.0 ppm, read-out: Efficacy %): 100%; inhibition of growth at 20 ppm ([5]; Colletotrichum lindemuthianum, single active at 20.0 ppm, read-out: Efficacy %): 100%; Efficacy % ([5]; single active at 0.8 ppm): 0%; inhibition of growth at 0.8 ppm (Cercospora beticola [6]; 0.8 ppm): 0%; inhibition of growth at 4 ppm (Cercospora beticola [6]; 4.0 ppm alone): 100%; inhibition of growth at 4 ppm (Cercospora beticola [6]; 4.0 ppm): 100%; inhibition of growth at 20 ppm (Cercospora beticola [6]; 20.0 ppm alone): 99%; inhibition of growth at 20 ppm (Cercospora beticola [6]; 20.0 ppm): 99%; inhibition of growth at 0.08 ppm (Cercospora beticola [7]; 0.08 ppm): 0%; inhibition of growth at 0.4 ppm (Cercospora beticola [7]; 0.4 ppm): 3%; inhibition of growth at 2 ppm (Cercospora beticola [7]; 2 ppm): 100%; inhibition of growth at 0.8 ppm (Diaporthe citri [8]; Table F10, 0.8 ppm alone): 9%; inhibition of growth at 4 ppm (Diaporthe citri [8]; Table F10, 4.0 ppm alone): 99%; inhibition of growth at 20 ppm (Diaporthe citri [8]; Table F10, 20.0 ppm alone): 98%; inhibition of growth at 0.8 ppm (Diaporthe citri [8]; applied alone, 0.8 ppm): 17%; inhibition of growth at 20 ppm (Diaporthe citri [8]; applied alone, 20.0 ppm): 98%; Efficacy (Fusarium culmorum [9]; 20.0 ppm, alone): 100%; inhibition of growth at 4 ppm (Fusarium culmorum [9]; Fusarium culmorum, 4.0 ppm, alone, read-out: Efficacy): 0%
